Common to all, as to test: inhibition of tumour cell growth, NCI panel, 48 h
Assay [1] has as its system CAKI-1 renal.
The subject of assay [2] is HCT-15 colon.
Assay [3] has as its system HL-60(TB) leukemia.
The test system of assay [4] is HS 578T breast.
Assay [5] concerns HT29 colon.
Assay [6] has as its system IGROV1 ovarian.
The subject of assay [7] is KM12 colon.
In assay [8] the test system is SF-539 CNS.
Assay [9] concerns SK-MEL-28 melanoma.
In assay [10] the test system is U251 CNS.

This is an account of results in PubChem BioAssay (NCI).

“And” between values parts separate entries of the source, which are not always exact repeats. Equal values may be shown once.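 1) Cells in 96-well plates. 2) Compound, 48 h, 5 concentrations. 3) Linear interpolation between surrounding doses. 4) Unreached endpoint = highest concentration. Here, GI50 denotes the concentration required for 50% inhibition of growth. Definition used: TGI = concentration required for complete inhibition of growth.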

`Nc1c2ccccc2nc2ccccc12`: the GI50 is 1.96 µM and 2.11 µM in assay [1]; 1.95 µM and 2.27 µM in [2]; 3.05 µM and 1.85 µM in assay [3]; 2.45 µM and 8.09 µM in [4]; 0.98 µM and 1.94 µM in assay [5]; 2.12 µM and 3.34 µM in [6]. The GI50 in [7] was 2.04 µM and 3.27 µM; in assay [8] it was 2.56 µM and 4.87 µM; in assay [9], 1.89 µM and 3.69 µM; in assay [10] it was 2.16 µM and 3.34 µM. Besides, the TGI in assay [1] is 5.96 µM; in [2], 11.1 µM and 7.23 µM; in [3] it was 6.99 µM and 10 µM; in [5], 3.23 µM and 7.34 µM; in assay [6], 6.18 µM and 14 µM; in [7], 7.58 µM and 14 µM. Moreover, the TGI in assay [8] was 7.93 µM and 16.2 µM; in assay [9], 3.92 µM and 13.7 µM; in assay [10], 8 µM and 13.1 µM.

On to `C=C1C(=O)O[C@H]2[C@H]1CC/C(COC(=O)NCc1ccc(Cn3c(=O)sn(CCCI)c3=O)cc1)=C\CC[C@@]1(C)O[C@@H]21`, for which the GI50 in [1] is 1.7 µM; in assay [2] it was 1.89 µM; in assay [3] it was 0.307 µM; in assay [4], 3.17 µM; in assay [5] it was 1.74 µM; in assay [6] it was 1.75 µM. In addition, the GI50 in [7] is 7.98 µM; in [8] it was 1.71 µM; in [9] it was 1.92 µM; in [10] it was 1.75 µM. Moreover, the TGI in assay [1] stood at 3.29 µM; in assay [2], 3.68 µM; in [3], 2.71 µM; in [4], 14.5 µM; in assay [5] it was 3.31 µM; in assay [6], 3.84 µM. Also, the TGI in assay [7] was found to be 24.8 µM; in [8] it was 3.34 µM; in [9], 3.79 µM; in assay [10] it was 3.68 µM.

For `O=C(CNC(=O)c1cccc2ccccc12)Nc1ccccc1Oc1ccc(O)cc1`, the GI50 is 0.909 µM in assay [2]; 0.705 µM in [3]; 1.34 µM in [4]; 0.992 µM in [5]; 2.33 µM in assay [6]; 0.919 µM in assay [7]. In addition, the GI50 in assay [8] is 0.688 µM; in [9] it was over 25 µM; in [10], 1.41 µM. Besides, the TGI was over 25 µM in assay [2]; 2.06 µM in [3]; over 25 µM in assay [4]; over 25 µM in assay [5]; over 25 µM in [6]; over 25 µM in assay [7]. Further, the values for the TGI in assay [8], in assay [9] and in assay [10] were 2.45 µM, over 25 µM and over 25 µM, respectively.

As for `COc1cnc2c(c1)C(=O)c1c-2n(CCCN2CCNCC2)c(=O)c2cc(F)ccc12`, the GI50 in assay [2] was 0.126 µM; in assay [3], 0.0927 µM; in [4] it was 2.08 µM; in assay [5], 0.15 µM; in assay [6], 0.478 µM; in [7], 0.168 µM. The GI50 was 0.532 µM in [8], 1.52 µM in [9] and 0.0841 µM in assay [10]. Further, the TGI in assay [2] is 1.3 µM; in assay [3] it was 0.682 µM; in assay [4] it was 16.9 µM; in [5], 0.68 µM; in assay [6], 2.34 µM; in assay [7], 1.16 µM. In addition, the TGI in assay [8] amounted to 1.83 µM; in assay [9] it was 3.03 µM; in assay [10], 1.05 µM.

Take `CC(C)CC(=O)O[C@H]1C(=O)O[C@@H]2C[C@H]3[C@H](C)C(=O)C(O[C@@H]4O[C@H](CO)[C@@H](O)[C@H](O)[C@H]4O)=C[C@]3(C)[C@H]3[C@@H](O)[C@H](O)[C@]4(C(=O)O)OC[C@]32[C@@H]14`: the GI50 in [2] was over 100 µM; in assay [3], 41.3 µM; in assay [4], 39.8 µM; in assay [5], 34 µM; in [6], 35.4 µM; in [8], 20.5 µM. The results for the GI50 in [9] and in assay [10] were 25.2 µM and 31.7 µM, respectively. The TGI in assay [2], in assay [3], in assay [4], in assay [5], in assay [6] and in [7] was over 100 µM in each case. Further, the TGI is 53.3 µM in assay [8], over 100 µM in assay [9] and over 100 µM in assay [10].

In the case of `C=C(CN1CCc2ccccc2C1)c1ccc(C(=O)Nc2cccc(N)c2)cc1`, the GI50 in assay [1] was 16.3 µM; in [2] it was 27.4 µM; in assay [4] it was 24.7 µM; in assay [5], 20.4 µM; in assay [6], 16 µM; in [7] it was 16.5 µM. The GI50 in assay [8] is 17.4 µM; in assay [9], 31.1 µM; in [10], 22.3 µM. Besides, the TGI in [1] was 45.1 µM; in assay [2], 69.8 µM; in [4] it was 58.1 µM; in assay [5], 94.7 µM; in [6] it was 47.2 µM; in [7], 33.7 µM. The TGI in assay [8] was 35.3 µM; in [9] it was over 100 µM; in [10] it was 57.4 µM.

As for `N#CCC1CCN(c2nc(Nc3ccc(N4CCC(O)CC4)cc3)c3c(=O)[nH]ncc3n2)CC1`, the GI50 was 0.312 µM in [1]; 0.428 µM in [2]; 0.22 µM in assay [4]; 0.283 µM in assay [5]; 0.266 µM in assay [6]; 0.038 µM in assay [7]. The GI50 in [8] was 0.869 µM; in [9] it was 1.2 µM; in assay [10], 1.03 µM. In addition, the TGI was over 100 µM in assay [1]; over 100 µM in assay [2]; 1.23 µM in assay [4]; over 100 µM in [5]; 2.95 µM in assay [6]; over 100 µM in assay [7]. For the same molecule, the TGI in [8] was 2.82 µM; in assay [9], over 100 µM; in [10], over 100 µM.

As to `CNC(=S)N/N=C/CSC/C=N/NC(=S)NC`, the GI50 is over 100 µM in assay [1]; 34.5 µM in assay [2]; over 62.3 µM in assay [3]; over 100 µM in assay [4]; over 100 µM in assay [7]; over 100 µM in assay [8]. For the same molecule, the GI50 in assay [9] and in [10] was over 100 µM throughout. For the same molecule, the TGI in assay [1], in assay [2], in assay [3], in [4], in assay [6] and in assay [7] was over 100 µM each time. In addition, the TGI in [8], in assay [9] and in assay [10] was over 100 µM in each case.

Take `CCN(CC)c1ccc(C=C2C(=O)NC(=S)NC2=O)cc1`: the GI50 in assay [1] is 1.72 µM; in assay [2], 3.24 µM; in assay [3] it was 2.6 µM; in assay [4], 5.53 µM; in assay [5] it was 1.86 µM; in assay [7], 4.52 µM. Also, the GI50 in assay [8] is 2.77 µM; in assay [9] it was 2.43 µM; in assay [10], 2.9 µM. Further, the TGI in assay [1] was 4.5 µM; in [2], 9.22 µM; in assay [3], 7.58 µM; in [4], over 100 µM; in [5] it was 3.64 µM; in [7], 16.6 µM. Further, the results for the TGI in assay [8], in [9] and in assay [10] were 6.15 µM, 5.1 µM and 7.59 µM, respectively.

Consider `CCN(CC)CCCC(C)Nc1ccnc2cc(OC)ccc12` (centres undefined), for which the GI50 in assay [1] was 19.6 µM; in assay [2], 37.5 µM; in assay [4], 26.3 µM; in assay [6], 27.3 µM; in assay [7], 26.4 µM; in [8], 19 µM. The GI50 in assay [10] is 42 µM. Further, the TGI in [1] was 44.4 µM; in [2], over 100 µM; in assay [4], 66.3 µM; in assay [6], 79.3 µM; in assay [7], over 100 µM; in [8], 34.4 µM. The molecule also gave a TGI in [10] of over 100 µM.

For `NC1=Nc2cc(OCCCCN3Cc4ccccc4C3)c(OCC3CC3)cc2C12CCCC2`, the GI50 in [1] is 2.1 µM; in assay [2], 1.48 µM; in assay [3], 1.73 µM; in [4] it was 1.49 µM; in [5], 1.26 µM; in assay [6], 1.42 µM. The results for the GI50 in assay [7], in [8] and in assay [10] were 1.72 µM, 1.53 µM and 1.53 µM, respectively. The TGI in assay [1] was 6.5 µM; in assay [2] it was 3.59 µM; in [3], 3.55 µM; in assay [4], 4.18 µM; in [5] it was 3.13 µM; in assay [6], 2.98 µM. Further, the TGI in [7] came to 3.39 µM; in assay [8], 2.91 µM; in assay [10], 3.11 µM.

For the molecule `CCc1ccc2cc3c(ccc4ccccc43)c3c2c1CC3`, the GI50 in [1], in assay [2], in assay [4], in assay [5], in assay [6] and in [7] was over 100 µM in each case. Besides, the GI50 in [8] and in assay [9] was over 100 µM each time. Further, the TGI in assay [1], in [2], in [4], in [5], in assay [6] and in [7] was over 100 µM throughout. In addition, the TGI in [8] and in assay [9] was over 100 µM throughout.

`O=c1c2cc(F)ccc2sc2c(NCCCNCCO)nc3ccc(F)cc3c12`: the GI50 was 1.53 µM in assay [1]; 1.49 µM in assay [2]; 1.79 µM in assay [4]; 1.82 µM in [5]; 1.25 µM in assay [6]; 1.84 µM in [7]. Further, the GI50 in [8] was 1.68 µM; in assay [9], 1.78 µM. Besides, the TGI in assay [1] came to 2.97 µM; in assay [2], 2.91 µM; in [4], 4.1 µM; in [5], 3.74 µM; in [6], 2.65 µM; in [7] it was 3.58 µM. For the same molecule, the TGI stood at 3.12 µM in [8] and 3.25 µM in assay [9].

Regarding `C/C=C/C(C/C=C(\C)CO[Si](C)(C)C(C)(C)C)O[Si](C)(C)C(C)(C)C` (centres undefined), the TGI in [1], in assay [2], in assay [3], in assay [4], in assay [5] and in [6] was over 100 µM each time. The TGI in assay [7], in [8] and in assay [9] was over 100 µM in each case.

As for `COc1cc(-c2nn(-c3cccc(NC(=O)NCCNC(=O)c4ccccc4)c3)cc2-c2ccncc2)ccc1Cl`, the GI50 in assay [2] was 1.97 µM; in assay [4], 6.29 µM; in assay [5] it was 0.965 µM; in assay [6], 4.68 µM; in [7] it was 2.56 µM; in [8], 0.859 µM. Besides, the GI50 in [9] was 3.04 µM; in [10], 2.62 µM. The TGI in assay [2] is over 100 µM; in assay [4], over 100 µM; in assay [5] it was 23.6 µM; in [6], over 100 µM; in assay [7], 40.2 µM; in [8], 7.44 µM. The TGI in assay [9] and in assay [10] was over 100 µM in each case.

For `Cc1nn(-c2ccccc2)c2c1[C@@H](C)[C@H]1CC3(CC4(C)C[C@@H]3C1(C)c1c(C)nn(-c3ccccc3)c1N4C)N2C` (some centres undefined), the GI50 is over 100 µM in [4], over 100 µM in [6], over 100 µM in assay [8] and 31.4 µM in assay [9]. For the same molecule, the TGI in [4], in assay [6], in assay [8] and in assay [9] was over 100 µM each time.

For the molecule `O=C(/C=C/c1c[nH]c2ccccc12)c1ccccc1O`, the TGI in assay [2] is 21.7 µM; in [3], over 100 µM; in assay [4], 66.7 µM; in assay [5], 33.9 µM; in assay [6], 36.4 µM; in assay [7], 70.1 µM. The TGI in assay [8] was 25.1 µM; in assay [9], 47.6 µM; in assay [10], 40.4 µM.
